Measured values: ChEMBL document CHEMBL2146384 (J Med Chem, 2012)
pIC50: −log10 of the molar value.

Key:
[1] = target: T1, Deoxyuridine 5'-triphosphate nucleotidohydrolase, mitochondrial (Homo sapiens, UniProt P33316); assay: Inhibition of human dUTPase-mediated formation of [5-3H]dUMP expressed in Escherichia coli BL21 (DE3) after 15 mins by HPLC analysis
T1 sequence (P33316 whole entry): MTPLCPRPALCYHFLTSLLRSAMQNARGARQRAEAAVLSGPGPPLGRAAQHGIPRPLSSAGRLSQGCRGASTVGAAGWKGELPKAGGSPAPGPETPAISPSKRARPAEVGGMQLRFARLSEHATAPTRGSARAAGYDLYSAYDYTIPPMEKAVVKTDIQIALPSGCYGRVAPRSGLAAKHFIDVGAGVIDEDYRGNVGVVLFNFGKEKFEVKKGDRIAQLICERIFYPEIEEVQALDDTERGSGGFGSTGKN

MX1 [2] = assay: Antitumor activity against human MX1 cells xenografted in Balb/cA JcL mouse at 15 mg/kg/day dosed as as continuous infusion measured on day 15; format: functional; settings: MX1, 360 h
Mus musculus [3] = assay: Toxicity in Balb/cA JcL mouse xenografted with human MX1 cells assessed as reduction of body weight at 300 mg/kg/day, po co-administered with 5-FU at 15 mg/kg/day as continuous infusion measured on day 15; format: organism-based; settings: in vivo
MX1 [4] = assay: Potentiation of 5-FU induced antitumor activity in human MX1 cells xenografted in Balb/cA JcL mouse at 300 mg/kg/day, po measured on day 15; format: functional; settings: MX1, 360 h
[5] = Cmax in Balb/cA mouse at 50 mg/kg, po; format: ADME, organism-based; parameters: dose 50 mg/kg, route oral; settings: in vivo
[6] = Half life in Balb/cA mouse at 50 mg/kg, po; format: ADME, organism-based; parameters: dose 50 mg/kg, route oral; settings: in vivo
[7] = AUC (0 to t) in Balb/cA mouse at 50 mg/kg, po; format: ADME, organism-based; parameters: dose 50 mg/kg, route oral; settings: plasma
MX1 [8] = assay: Antitumor activity against human MX1 cells xenografted in Balb/cA JcL mouse at 300 mg/kg/day, po measured on day 15; format: functional; settings: MX1, 360 h
Mus musculus [9] = assay: Toxicity in Balb/cA JcL mouse xenografted with human MX1 cells assessed as mortality at 300 mg/kg/day, po co-administered with 5-FU at 15 mg/kg/day as continuous infusion measured on day 15; format: organism-based; settings: in vivo
[10] = Tmax in Balb/cA mouse at 50 mg/kg, po; format: ADME, organism-based; parameters: dose 50 mg/kg, route oral; settings: in vivo

SMILES | pIC50 [1] | other results
C[C@@H](NS(=O)(=O)CC/C=C/Cn1ccc(=O)[nH]c1=O)c1cccc(OCC(F)F)c1 | 7.09 | 
COc1cccc(S(=O)(=O)NC(C)(C)c2ccc(Cn3ccc(=O)[nH]c3=O)cc2)c1 | 5.90 | 
O=c1[nH]cc(F)c(=O)[nH]1 [FLUOROURACIL] |  | inhibition in vivo at 15 mg/kg/day (MX1 [2]): 20%
CC(C)(NS(=O)(=O)c1cccc(OC2CCCC2)c1)c1ccc(Cn2ccc(=O)[nH]c2=O)cc1 | 7.51 | 
CC(C)(NS(=O)(=O)c1cccc(OCC2CC2)c1)c1ccc(Cn2ccc(=O)[nH]c2=O)cc1 | 7.14 | 
C[C@@H](NS(=O)(=O)c1ccc(Cn2ccc(=O)[nH]c2=O)cc1)c1cccc(OCC(F)F)c1 | 6.39 | 
C[C@@H](NS(=O)(=O)CC/C=C/Cn1ccc(=O)[nH]c1=O)c1cccc(OC2CCCC2)c1 | 7.39 | 
CC(C)(NS(=O)(=O)c1ccccc1)c1ccc(Cn2ccc(=O)[nH]c2=O)cc1 | 5.74 | 
CC(C)(CC/C=C/Cn1ccc(=O)[nH]c1=O)NS(=O)(=O)c1ccccc1 | 5.80 | 
C[C@@H](NS(=O)(=O)c1ccc(Cn2ccc(=O)[nH]c2=O)cc1)c1cccc(OCC2CC2)c1 | 6.09 | 
COc1cccc(S(=O)(=O)NC(C)(C)CC/C=C/Cn2ccc(=O)[nH]c2=O)c1 | 6.47 | 
CC(C)(CC/C=C/Cn1ccc(=O)[nH]c1=O)NS(=O)(=O)c1cccc(OC2CCCC2)c1 | 7.48 | 
CC(C)(CC/C=C/Cn1ccc(=O)[nH]c1=O)NS(=O)(=O)c1cccc(OCC(F)F)c1 | 7.59 | 
C[C@@H](NS(=O)(=O)c1ccc(Cn2ccc(=O)[nH]c2=O)cc1)c1cccc(OC2CCCC2)c1 | 6.37 | 
C[C@@H](NS(=O)(=O)CC/C=C/Cn1ccc(=O)[nH]c1=O)c1cccc(OCC2CC2)c1 | 7.41 | Activity (Mus musculus [3]): Non-toxic; inhibition in vivo at 300 mg/kg/day (MX1 [4]): 68%; Cmax [5]: 19.5 µM; half-life [6]: 53.4 min; AUC(0-t) [7]: 19.5 µM·h; inhibition in vivo at 300 mg/kg/day (MX1 [8]): -29%; Activity (Mus musculus [9]): Non-toxic; Tmax [10]: 30 min
CC(C)(NS(=O)(=O)c1cccc(OCC(F)F)c1)c1ccc(Cn2ccc(=O)[nH]c2=O)cc1 | 7.14 | 
